Measurements from PubChem BioAssay AID504857 (Southern Research Specialized Biocontainment Screening …, 2011).
Activity calls are given as the source filed them. No rule for the calls is given here.

Assays:
[1] = test system: Mycobacterium tuberculosis H37Rv growth in 7H9 media; assay: M. tuberculosis growth inhibition, dose response, H37Rv, 7H9 media, purified and synthesized compounds, set 4 (AID 504857); settings: for IC50: measured here: M. tuberculosis growth IC50
[2] = as above; settings: Mycobacterium tuberculosis H37Rv growth in 7H9 media; at 100 µM (top of the series)

SMILES	IC50 [1] [nM]	growth inhibition [2]	IC90 [1] [nM]
Nc1c(C(=O)NC2CCCCC2)nsc1C(=O)OCC(=O)NC1CCCCC1	4420	–	–
O=C(CSc1ccccn1)NC1CCCCC1	–	5.02% (inactive)	–
O=C(CSc1nc2ccccc2c(=O)[nH]1)NCc1ccc(Cl)cc1	760	–	1270
O=C(CSc1nc2c(c(=O)[nH]1)CCCC2)NC1CCCCC1	< 10	–	< 10
O=c1[nH]c(=S)[nH]c2ccccc12	–	-2.47% (inactive)	–
Cc1nc(SCC(=O)N(C)c2ccccc2)[nH]c(=O)c1C	–	-2.18% (inactive)	–
Cc1ccc(NC(=O)COC(=O)CCc2c[nH]c3ccccc23)cc1[N+](=O)[O-]	2550	–	4680
CC(Sc1nc2ccccc2c(=O)[nH]1)C(=O)NC1CCCCC1 (stereo not drawn)	–	3.48% (inactive)	–
O=C(CSc1nc2ccccc2c(=O)[nH]1)NC1CCCC1	240	–	710
O=C(CSc1nc2ccccc2c(=O)[nH]1)N1CCOCC1	–	6.76% (inactive)	–
Cc1nc(SCC(N)=O)[nH]c(=O)c1C	–	3.13% (inactive)	–
Cc1cc(=O)[nH]c(SCC(=O)NC2CCCCC2)n1	–	-5.77% (inactive)	–
CC(C)CCNC(=O)CSc1nc2c(c(=O)[nH]1)CCC2	1140	–	1850
CNC(=O)CSc1nc2ccccc2c(=O)[nH]1	54800	–	89800
CCSc1nc(C)c(C)c(=O)[nH]1	–	1.25% (inactive)	–
COc1ccc(NC(=O)CSc2nc3ccccc3c(=O)[nH]2)cc1	–	10.6% (inactive)	–
Cc1nc(SCc2ccccc2Cl)[nH]c(=O)c1C	–	-1.2% (inactive)	–
CC(C)NC(=O)CSc1nc2ccccc2c(=O)[nH]1	10300	–	15200
CN(C)C(=O)CSc1nc2ccccc2c(=O)[nH]1	–	10.3% (inactive)	–
COc1cccc(NC(=O)CSc2nc3ccccc3c(=O)[nH]2)c1	–	7.54% (inactive)	–

SMILES	IC50 [1] [nM]	growth inhibition [2]	IC90 [1] [nM]
COC(=O)C(Nc1nc(SCC(=O)NC2CCCCC2)nc2ccccc12)c1ccccc1 (stereo not drawn)	–	0.63% (inactive)	–
Cn1c(SCC(=O)NC2CCCCC2)nc2ccccc2c1=O	–	5.15% (inactive)	–
Cc1nc(SCC(=O)NC2CCCC2)[nH]c(=O)c1C	6250	–	10900
O=c1[nH]c(SCc2ccccc2Cl)nc2c1CCCC2	–	9.36% (inactive)	–
Cc1ccc(C(=O)N/N=C(/CC(=O)c2cccs2)C(F)(F)F)cc1	1230	–	2800
O=C(CSc1ncccn1)NC1CCCCC1	–	-3.06% (inactive)	–
CC[N+](C)(CC)CCCCOc1ccc2c(c1)C(=O)c1cc(OCCCC[N+](C)(CC)CC)ccc1-2	2470	–	3300
Cc1cccc(/C=C/C(=O)c2ccc([N+](=O)[O-])o2)c1	670	–	1120
Cc1[nH]c(=S)[nH]c(=O)c1C	–	3.68% (inactive)	–
CN(C(=O)CSc1nc2ccccc2c(=O)[nH]1)C1CCCCC1	–	4.85% (inactive)	–
Cc1cccc(-c2oc3ccc(-c4ccc5c(c4)OCO5)cc3c2C#Cc2cncn2C)c1	2600	–	3130
Cc1ccc(NC(=O)CSc2nc3ccccc3c(=O)[nH]2)cc1Cl	–	0.04% (inactive)	–
CC(C)CCNC(=O)CSc1nc2ccccc2c(=O)[nH]1	< 10	–	20
COC(=O)C(C)Oc1ccc(Cc2ncc(C(F)(F)F)cc2Cl)cc1 (stereo not drawn)	4400	–	7110
NC(=O)CSc1nc2ccccc2c(=O)[nH]1	–	5.87% (inactive)	–
O=C(CSc1nccc(=O)[nH]1)NC1CCCCC1	–	6.38% (inactive)	–
CCC(Sc1nc2c(c(=O)[nH]1)CCC2)C(=O)Nc1cccc(OC)c1 (stereo not drawn)	–	-2.13% (inactive)	–
CCSc1nc2ccccc2c(=O)[nH]1	–	2.57% (inactive)	–
CC1CCN(C(=O)CSc2nc3ccccc3c(=O)[nH]2)CC1	–	2.61% (inactive)	–
CN1CCC(NC(=O)CSc2nc3ccccc3c(=O)[nH]2)CC1	–	4.15% (inactive)	–

SMILES	IC50 [1] [nM]	growth inhibition [2]	IC90 [1] [nM]
Cc1c[nH]c(=S)[nH]c1=O	–	2.29% (inactive)	–
Cc1cnc(SCC(=O)NC2CCCCC2)[nH]c1=O	–	4.36% (inactive)	–
COc1cccc(NC(=O)CSc2nc3c(c(=O)[nH]2)CCC3)c1	–	-2.55% (inactive)	–
O=C(CSc1nc2ccccc2c(=O)[nH]1)NC1CCCCC1	250	–	400
Cc1cc(=O)[nH]c(=S)[nH]1	–	-3.77% (inactive)	–
Cc1[nH]c2ccccc2c1C(=O)COC(=O)c1ccc([N+](=O)[O-])s1	1690	–	2930
CCC(Sc1nc2ccccc2c(=O)[nH]1)C(=O)NC1CCCCC1 (stereo not drawn)	–	0.65% (inactive)	–
O=C(CSc1nc2c(c(=O)[nH]1)CCC2)NC1CCCCC1	< 10	–	< 10
Cc1cc(Br)ccc1NC(=O)c1cnc(N2CCN(c3ccccn3)CC2)c2ccccc12	1030	–	35000
c1ccc(/N=C2\N=C(Nc3ccccn3)c3ccccc32)nc1	1030	–	1360
COC(=O)c1ccc(CNc2c(N3CCCC3)c(=O)c2=O)cc1	–	1.55% (inactive)	–
CCC(Sc1nc2ccccc2c(=O)[nH]1)C(=O)Nc1cccc(OC)c1 (stereo not drawn)	–	18.9% (inactive)	–
CC1CCN(C(=O)C2CCN(c3nnc(-n4cccc4)s3)CC2)CC1	2790	–	4870
CCOC(=O)CSc1nc(C)c(C)c(=O)[nH]1	–	7.45% (inactive)	–
Nc1cc(=O)[nH]c(SCC(=O)NC2CCCCC2)n1	–	-0.79% (inactive)	–
Cc1cc(C)n2nc(N)c(N=Nc3ccccc3)c2n1	4720	–	6310
Cc1nc(SCC(=O)NCCC(C)C)[nH]c(=O)c1C	5780	–	9970
CCOc1ccc(-c2cc(C)[n+](CCc3ccc(OC)c(OC)c3)c(-c3ccc(OCC)cc3)c2)cc1	770	–	1110
CCOC1OC(=O)C(Cl)=C1Nc1ccccc1C (stereo not drawn)	3780	–	9910
